In patent US20200077648A1, “PHENOXYPHENYLAMIDINES AND THE USE THEREOF AS FUNGICIDES” (priority 2016, published 2020):

Assays:
soy bean plants = test: Plant compatibility test using soy bean plants; type: in vivo; details: soy bean young plants sprayed, rate of application of active compound 500 ppm, evaluated 6 days after application; 0% = no damages, 100% = plants totally damaged
Description: Plant Compatibility Test Using Soy Bean Plants
Solvent: 24.5 parts by weight of acetone • 24.5 parts by weight of dimethylacetamide Emulsifier: 1 part by weight of alkylaryl polyglycol ether
To produce a suitable preparation of active compound, 1 part by weight of active compound is mixed with the stated amounts of solvent and emulsifier, and the concentrate is diluted with water to the desired concentration. Young plants are sprayed with the preparation of active compound at the stated application rate. The plants are then placed in a greenhouse at approximately 21° C. and a relative atmospheric humidity of approximately 80%. The test is evaluated 6 days after application and comprises plant damages like leaf deformation, chlorosis, necrosis, shoot damage or stunting. 0% means no damages are observed, while 100% means that the plants are totally damaged.

[1] = Log P measurement by HPLC on reversed phase columns (EEC directive 79/831 Annex V.A8; methods [a], [b], [c]); type: physicochemical
Description: If more than one Log P value is available within the same method, all the values are given and separated by “+”. […] Lambda-max-values were determined using UV-spectra from 200 nm to 400 nm and the peak values of the chromatographic signals.

[2] = method [a]: LC-UV, acidic range, 0.1% formic acid in water and acetonitrile as eluent
[3] = method [b]: LC-UV, neutral range, 0.001 molar ammonium acetate solution in water and acetonitrile as eluent
[4] = method [a]: LC-UV, acidic range, 0.1% formic acid in water and acetonitrile as eluent (linear gradient 10% to 95% acetonitrile)

LogP [1, 2] | LogP [1, 3] | LogP [1, 4] | Compound | Necrosis in % (soy bean plants)
1.69^[a]; | 5.01^[b] | – | CCN(C)C=Nc1cc(I)c(Oc2ccccc2)cc1C [Example 30] | 50%
1.42^[a]; | 3.93^[b] | – | CCN(C)C=Nc1cc(OC)c(Oc2ccccc2)cc1C [Example 31] | 30%
1.58^[a]; | 4.79^[b] | – | CCN(C)C=Nc1cc(Br)c(Oc2ccccc2)cc1C [Example 36] | 40%
1.58^[a] | – | – | CCN(C)C=Nc1cc(I)c(Oc2ccccc2F)cc1C [Example 55] | 10%
1.37^[a] | – | – | CCN(C)C=Nc1cc(I)c(Oc2ccccc2C#N)cc1C [Example 56] | 10%
1.34^[a] | – | – | CCN(C)C=Nc1cc(F)c(Oc2ccccc2F)cc1C [Example 65] | 20%
1.68^[a] | – | – | Cc1cc(Oc2ccccc2F)c(C)cc1N=CN(C)C(C)C [Example 67] | 40%
– | – | 1.48^[a] | Cc1cc(Oc2ccccc2C#N)c(C)cc1N=CN(C)C(C)C [Example 71] | 5%
– | – | 1.35^[a] | CCN(C)C=Nc1cc(C)c(Oc2cccc(F)c2C#N)cc1Cl [Example 88] | 20%
– | – | 1.27^[a] | CCN(C)C=Nc1cc(C)c(Oc2cc(F)ccc2C#N)cc1Cl [Example 93] | 10%
– | – | 1.18^[a] | CCN(C)C=Nc1cc(C(F)F)c(Oc2ccccc2C#N)cc1C [Example 102] | 0%
– | – | 1.46^[a] | CCN(C)C=Nc1cc(C(F)F)c(Oc2ccccc2F)cc1C [Example 105] | 0%
– | – | 1.69^[a] | CCc1cc(N=CN(C)CC)c(C)cc1Oc1ccccc1F [Example 106] | 30%
– | – | 1.75^[a] | CCN(C)C=Nc1cc(C(C)C)c(Oc2ccccc2C#N)cc1C [Example 107] | 0%
– | – | 1.69^[a] | CCN(C)C=Nc1cc(C)c(Oc2ccccc2C(F)(F)F)cc1C [Example 114] | 5%
– | – | 1.60^[a] | C=C(C)c1cc(N=CN(C)CC)c(C)cc1Oc1ccccc1F [Example 118] | 5%

Compound | LogP [1, 2] | LogP [1, 3] | LogP [1, 4] | Necrosis in % (soy bean plants)
CCN(C)C=Nc1cc(C(F)(F)F)c(Oc2ccccc2C#N)cc1C [Example 21] | 1.46^[a] | – | – | 20%
CCN(C)C=Nc1cc(Br)c(Oc2ccccc2F)cc1C [Example 42] | 1.55^[a] | – | – | 20%
CCN(C)C=Nc1cc(Cl)c(Oc2cccc(Cl)c2)cc1C [Example 48] | 1.83^[a] | – | – | 30%
CCN(C)C=Nc1cc(C2CC2)c(Oc2ccccc2F)cc1C [Example 120] | – | – | 1.60^[a] | 0%
